Reference: US11350634B2, “Method for preparing biopesticide preparation for preventing and controlling Solenopsis invicta” (GUANGDONG INSTITUTE OF APPLIED […], priority 2017, dated 2022)

Columns and labels:
[1] = test system: Solenopsis invicta worker ants; assay: Laboratory virulence test of the combination of Beauveria bassiana and sodium chloride (Embodiment 1 method); assay type: in vivo; settings: for synergism / effect on the pesticidal effect of Beauveria bassiana: salt added to Beauveria bassiana solution instead of sodium chloride, Embodiment 1 test
Method: In the laboratory virulence test, 5 g of Beauveria bassiana powder formulation was dissolved in 1 L of water and mixed well to give a Beauveria bassiana solution. The used Beauveria bassiana powder formulation contained 20 billion/g of Beauveria bassiana spores. 9 Beauveria bassiana solutions, 100 mL each, were taken from the IL Beauveria bassiana solution, and respectively added with NaCl so that NaCl concentrations in the 9 Beauveria bassiana solutions were: 0 mmol/L, 25 mmol/L, 75 mmol/L, 100 mmol/L, 125 mmol/L, 150 mmol/L, 200 mmol/L, 250 mmol/L, and 300 mmol/L, and thereby Beauveria bassiana/sodium chloride aqueous dispersions were obtained, wherein the Beauveria bassiana spores were present in a concentration of 1×10^8/mL.
The Beauveria bassiana solution, the Beauveria bassiana/sodium chloride aqueous solution, a sodium chloride solution (125 mmol/L), and sterile water were respectively tested for virulence against healthy Solenopsis invicta worker ants, with 3 replicates for each treatment, 1 petri dish in each replicate, and 100 Solenopsis invicta worker ants in each petri dish. […] Data statistical analysis was performed using SPSS 13.0 software, significance testing between samples was performed using the Duncan's method, wherein different lowercase letters indicate a significant difference (P<0.05) in cumulative mortality of the treated Solenopsis invicta.

[2] = test system: Solenopsis invicta worker ants; assay: Laboratory virulence test of the Beauveria bassiana/sodium chloride aqueous dispersion of water dispersible granule formulation (with adjuvants); assay type: in vivo; settings: worker ants dipped about 5 seconds, 96 hours after treatment, 1×10^8/mL spores, NaCl alone 125 mmol/L, FIG. 2
From the text: A totally 30 g of Beauveria bassiana powder formulation and sodium chloride (wherein a mass ratio of the Beauveria bassiana powder formulation to sodium chloride included 5:1.46, 5:4.38; 5:5.84, 5:7.30, 5:8.77, 5:11.69, 5:14.61 g, and 5:17.53, and the Beauveria bassiana powder formulation contained 20 billion Beauveria bassiana spores per gram), 8 g of wetting agent butylnaphtalenesulfonic acid sodium salt, 18 g of dispersant sodium lignosulfonate, 5 g of disintegrant calcium chloride, 2 g of stabilizer disodium hydrogen phosphate, 5 g of binder sodium polyacrylate, and 32 g of carrier diatomite, were weighed out and mixed according to a method for preparing a water dispersible granule formulation (1. The raw materials were mixed evenly according to the formula. 2. The materials were ground using a sand mill after mixed evenly, and subjected to spray granulation after determined to be acceptable. 3. The products were screened using a vibrating screen after the spray granulation, products with unacceptable appearance were returned to the sand mill to be ground again, and products with acceptable appearance were further subjected to quality inspection wherein products with unacceptable quality were also returned to the sand mill to be ground again. 4. Products with acceptable quality were packaged. 5. […]

[Cl-].[Na+] [NaCl, sodium chloride]
96 h cumulative mortality / pesticidal effect ([1]; worker ants dipped about 5 seconds, 96 hours after treatment, 1×10^8/mL spores, NaCl alone 125 mmol/L, no adjuvants, FIG. 1): no killing effect
96 h cumulative mortality / pesticidal effect [2]: no killing effect

[Ca+2].[Cl-].[Cl-] [calcium chloride]
synergism / effect on the pesticidal effect of Beauveria bassiana [1]: no significant difference

[Cl][Fe]([Cl])[Cl] [ferric chloride]
synergism / effect on the pesticidal effect of Beauveria bassiana [1]: no significant difference

[Cl-].[Cl-].[Mg+2] [magnesium chloride]
synergism / effect on the pesticidal effect of Beauveria bassiana [1]: no significant difference

[Cl-].[K+] [potassium chloride]
synergism / effect on the pesticidal effect of Beauveria bassiana [1]: no significant difference
